Reference: patent publication US8017316B2, “Methods and compositions for the identification of insect repellent compounds” (Duke University, priority 2007, dated 2011)

Columns and labels:
painless mutant flies = test: Avoidance Evaluation Chamber assay, painless mutant flies; assay type: in vivo, Drosophila melanogaster
Experimental: (§1) Drosophila Stocks. All fly stocks were maintained on conventional cornmeal-agar-molasses medium under a 12 hour light/12 hour dark cycle at 22° C. Fly strains used were the wild-type Canton-S, the painless mutant pain1 (EP(2)2451), the dTRPA1 mutant (dTRPA1^23-5939/Df(3L)ED4415), the painless− dTRPA1 double mutant pain1; dTRPA1^23-5939, the Or83b mutant W;ΔOr83b (provided by Dr. Hubert Amrein, Duke University, Durham, N.C., United States of America), and the Or83b-painless double mutant pain1; W;ΔOr83b.
(§2) Avoidance Evaluation Chambers: 3% agar (Fisher Scientific, Pittsburgh, Pa., United States of America) and 3% sucrose (Fisher Scientific) was dissolved in distilled H2O. 0.2% (1:500, or 20 mM) N,N-diethyl-3-methylbenzamide (DEET) or 0.01% (1:10000, or 1 mM) allyl-isothiocyanate (AITC) was added and mixed into the agar/sucrose solution immediately before 22 milliliters of solution was poured into each 60 diameter×15 mm HBD Falcon Standard Tissue Culture Dish. The agar was allowed for harden for approximately 1 hour. Using a template below each dish, the agar was then split along the midline with a clean razor blade and half of each plate was excised and placed onto a clean absorbent towel. In order to assess preference, the empty half of each plate was then replaced with solidified 3% agar and 3% sucrose without the addition of DEET or AITC. Care was taken to not contaminate surfaces of toxin and toxin-free agar during this switch.
(§3) Olfactory Desensitization: To prevent most odorant detection, the third antennal segment of each antennae was removed from flies under CO2 anesthesia 24 hours before avoidance trials. Removal of both aristae, but not any part of the antennae, was used as a sham to control for non-specific effects that may have resulted from the surgical procedure.
(§4) Trial Recording: Testing areas (e.g., plates), each containing toxin-containing and toxin-free halves, were placed on a fluorescent-bulb containing light box and arranged so that all fit within the viewfinder of a digital video camera (SONY Handycam; see FIG. 1). Multiple flies to be used on each plate of the trial were sorted under CO2 anesthesia 24 hours before the experiment into glass vials containing fly food. During the experiment, the flies were transferred onto the agar plates by gentle tapping after vials were cooled horizontally on ice. The lids were replaced on the agar plates after fly transfer and animals were allowed a 5-minute acclimation time prior to the start of each trial. The video camera began recording after this acclimation time and ran for 60 minutes. External noise and odors were avoided throughout the trial.
Data Analysis—Avoidance Behavior: Video was downloaded from the digital video camera to a computer using Image Video Mixer (Sony Electronics Inc.) and saved as an MPEG2 file. The movie was then converted to and saved as an image stack at the rate of 1-3 images/second through Image Video Machine (DanDans Digital Media, Boston, Mass., United States of America). Image stacks for each trial were then analyzed at 10 or 15-minute intervals. Each interval was imported and converted to grayscale into ImageJ (Rasband, ImageJ, U.S. National Institutes of Health, Bethesda, Md., United States of America) as a stack and thresholded (Image→Threshold) so that only flies were visible. Care was taken to make sure only flies were visible in each slice since fluorescence in the light box may be of different brightness in each image. The Z-stack Standard Deviation function of ImageJ (Image→Stack→Z-stack→Standard Deviation) was used to visualize the position of all flies throughout each time interval. This inverts and stacks pixels (flies) from each stack image so that the most occupied areas are standardized to be the brightest, and the least occupied areas remain dark. To quantify this amount of time each space was occupied, the “mean gray value” for each side was calculated using the Analyze Measurements menu of ImageJ. […]

dTRPA1 mutant flies = test: Avoidance Evaluation Chamber assay, dTRPA1 mutant flies; assay type: in vivo, Drosophila melanogaster
Experimental: as §1
(§5) Avoidance Evaluation Chambers: 3% agar (Fisher Scientific, Pittsburgh, Pa., United States of America) and 3% sucrose (Fisher Scientific) was dissolved in distilled H2O. […]
(§6) Data Analysis—Avoidance Behavior: Video was downloaded from the digital video camera to a computer using Image Video Mixer (Sony Electronics Inc.) and saved as an MPEG2 file. […] Image stacks for each trial were then analyzed at 10 or 15-minute intervals. […] Care was taken to make sure only flies were visible in each slice since fluorescence in the light box may be of different brightness in each image. […] To quantify this amount of time each space was occupied, the “mean gray value” for each side was calculated using the Analyze Measurements menu of ImageJ. […]

wild-type Canton S flies = test: Avoidance Evaluation Chamber assay, wild type flies; assay type: in vivo, Drosophila melanogaster; details: for avoidance without the third antennal segment: wild type Canton S flies, third antennal segment removed
Experimental: as §2, §3, §4
Data Analysis—Avoidance Behavior: Video was downloaded from the digital video camera to a computer using Image Video Mixer (Sony Electronics Inc.) and saved as an MPEG2 file. The movie was then converted to and saved as an image stack at the rate of 1-3 images/second through Image Video Machine (DanDans Digital Media, Boston, Mass., United States of America). Image stacks for each trial were then analyzed at 10 or 15-minute intervals. Each interval was imported and converted to grayscale into ImageJ (Rasband, ImageJ, U.S. National Institutes of Health, Bethesda, Md., United States of America) as a stack and thresholded (Image→Threshold) so that only flies were visible. Care was taken to make sure only flies were visible in each slice since fluorescence in the light box may be of different brightness in each image. The Z-stack Standard Deviation function of ImageJ (Image→Stack→Z-stack→Standard Deviation) was used to visualize the position of all flies throughout each time interval. […] To quantify this amount of time each space was occupied, the “mean gray value” for each side was calculated using the Analyze Measurements menu of ImageJ. […]
Alternatively, the threshold intensity of a single frame in NIH ImageJ was determined automatically; this function highlighted only the flies against an otherwise white background. […]

Or83b mutants = test: Avoidance Evaluation Chamber assay, Or83b mutant flies; assay type: in vivo, Drosophila melanogaster; details: olfaction-deficient Or83b mutants
Experimental: as §1, §5, §6

Drosophila painless = target: T1, Drosophila painless (Drosophila melanogaster, UniProt Q9W0Y6); test: Calcium imaging of S2R+ cells transfected with painless; assay type: cell-based; details: 0.5% DEET, six regions of interest
T1 construct: expressed in transfected cells; host or cells: Drosophila S2R+ cells
T1 sequence (Q9W0Y6 1-913): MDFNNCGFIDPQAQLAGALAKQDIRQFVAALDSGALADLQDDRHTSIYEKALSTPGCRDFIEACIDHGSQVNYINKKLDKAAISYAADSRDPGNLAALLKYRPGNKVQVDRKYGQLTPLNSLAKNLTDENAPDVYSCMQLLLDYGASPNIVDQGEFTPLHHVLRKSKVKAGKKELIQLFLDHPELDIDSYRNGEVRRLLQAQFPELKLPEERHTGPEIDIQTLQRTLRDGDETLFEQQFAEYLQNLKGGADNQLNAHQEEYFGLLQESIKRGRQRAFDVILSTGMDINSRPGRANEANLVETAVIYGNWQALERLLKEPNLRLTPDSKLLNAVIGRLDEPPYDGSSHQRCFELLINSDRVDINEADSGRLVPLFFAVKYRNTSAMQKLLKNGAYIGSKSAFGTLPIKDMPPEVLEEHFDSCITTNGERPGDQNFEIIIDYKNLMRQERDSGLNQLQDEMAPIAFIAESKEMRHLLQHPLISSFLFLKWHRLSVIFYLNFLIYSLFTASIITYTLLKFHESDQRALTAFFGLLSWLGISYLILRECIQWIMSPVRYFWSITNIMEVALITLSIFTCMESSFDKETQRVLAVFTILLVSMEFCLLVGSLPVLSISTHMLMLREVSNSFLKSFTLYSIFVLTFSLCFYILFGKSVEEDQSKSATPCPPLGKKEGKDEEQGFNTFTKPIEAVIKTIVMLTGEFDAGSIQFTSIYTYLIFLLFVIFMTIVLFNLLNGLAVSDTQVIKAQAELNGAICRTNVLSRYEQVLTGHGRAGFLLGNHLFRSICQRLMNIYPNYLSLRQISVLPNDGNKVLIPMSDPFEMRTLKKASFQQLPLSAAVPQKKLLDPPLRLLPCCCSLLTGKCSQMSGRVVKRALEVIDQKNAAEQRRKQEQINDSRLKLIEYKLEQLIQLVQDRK
Experimental: Calcium Phosphate Transfection of Drosophila S2R+ Cells: Drosophila S2R+ cells were maintained at room temperature, in ambient atmosphere, in Schneider's Drosophila medium modified with L-glutamine plus 10% heat-inactivated fetal bovine serum. On the day before DNA transfection, cells were plated at a density of 1.2×10^5 cells per cm^2 growth area. DNA to be transfected was added to 250 mM CaCl2 (a volume equal to 1/20th of the volume of the medium in the dish of cells to be transfected) then this mixture was added dropwise to the same volume of 280 mM NaCl/1.5 mM/Na2HPO4/50 mM HEPES, pH 7.08 (2×HEPES buffered saline) while bubbling air gently through the liquid to mix. Precipitate was allowed to form at room temperature for 40 minutes. Immediately before introducing the precipitate, all growth medium was removed form the cells and fresh growth medium was added. Precipitate was added dropwise to the cells, and the dish was gently swirled. 18-24 hour later all liquid on the dish was withdrawn and was replaced with fresh growth medium. Expression was examined on the third day.
For the DEET experiments, 2 ml of culture medium containing 5.75×10^5 cells/ml was placed onto #1.5 25 mm diameter round glass cover slips placed in 6-well multiwell dishes. […]

Drosophila flies = test: Evaluation of activity level (speed of flies); assay type: in vivo, Drosophila melanogaster
Experimental: Evaluation of Activity Level—Speed of Flies: Video of trials were downloaded and converted to image stacks and thresholded as described above. The ImageJ plug-in “Multitracker” was used to analyze the paths taken by each fly. The total distance traveled by all flies on each plate was calculated using the Multitracker plug-in, and this distance was divided by the time interval (in minutes) to gauge the average speed of flies on each plate in path lengths/minute.

[1] = tested on: non-transfected S2R+ cells; test: Calcium imaging of non-transfected S2R+ cells; assay type: cell-based, Drosophila; details: 0.5% DEET, seven regions of interest
Experimental: Calcium Imaging for S2R+ cells: the following protocol was followed:
100 μl of the following Fluo4+Fura-Red solution was added per well:
Added 200 μl of fly saline.
The ligand solution was added (with or without Ca++ fly saline).
Control cells were S2R+ cells mock-transfected (no DNA was introduced in the co-precipitation buffers).
After removal of the cell medium from the transfected cells of EXAMPLE 8, 100 μl of FLUO-4+ FURA-Red solution was added to well. This solution included 0.5 μl FLUO-4 stock, 0.5 μl FURA-Red stock, 0.5 μl Pluronic stock and 100 μl Stop solution. The cells were incubate in this solution at room temperature for 45 minutes. The saline was removed and 200 μl of fly saline was added. In Ca++ free conditions, the cells were washed with Ca++ free fly saline supplemented with 5 mM EGTA three times, and then 200 μl of Ca++ free, 5 mM EGTA fly saline was added. The ligand solution was then added with or without Ca++ fly saline.
The loaded cells were imaged by confocal microscopy using 488 nm excitation and Long Pass 650 nm and Band Pass 500-525 nm filters.

C=CCN=C=S [AITC, allyl-isothiocyanate]
preference in AITC avoidance test, males (painless mutant flies; painless-/- males, 1:10,000 dilution): slight preference for the non-AITC side
AITC detection / avoidance (painless mutant flies; painless-/- mutants, 1:10,000 dilution, compared to wild type Canton S): deficient in AITC detection
avoidance of AITC over time (dTRPA1 mutant flies; 1:10,000 AITC): avoided the toxin for the first 30 minutes, but afterwards showed no preference for either side of the plate
avoidance without the third antennal segment (wild-type Canton S flies): able to avoid
avoidance (Or83b mutants): did not show the same avoidance of AITC

CCN(CC)C(=O)c1cccc(C)c1 [DEET, N,N-diethyl-meta-toluamide]
calcium response (FLUO-4 and FURA-RED AM channels) (Drosophila painless): strong calcium increases
activity level (path lengths/min) in the presence of DEET (Drosophila flies; Canton S flies without the third antennal segment): significantly less active
activity level in the presence of DEET (Drosophila flies; Or83b flies compared to Canton S, TrpA1 and painless mutant counterparts): much less active
activity level (path lengths/min) in the presence of DEET (Drosophila flies; wild type Canton S flies with intact third-antennal segments): increased their activity level
calcium response (FLUO-4 and FURA-RED AM channels) [1]: strong calcium increases
avoidance of DEET in first 15 minutes (painless mutant flies; P-pain-rescue, pain1 transgenic flies (genomic painless rescue construct), females and males): some avoidance of DEET
avoidance of DEET in first fifteen minutes after exposure (painless mutant flies; pain1/pain2 females and males): failed to avoid DEET
avoidance of DEET in first fifteen minutes after exposure (painless mutant flies; pain1 females and males): failed to avoid DEET
time to avoid DEET, females relative to males (painless mutant flies; painless females vs painless males): twice as long
avoidance of DEET, females (painless mutant flies; painless-/- females): barely avoiding at the last 65 min time point
time to begin avoiding DEET (painless mutant flies; painless-/- males): about 30 minutes
avoidance of DEET without third antennal segments (painless mutant flies; painless-/- males and females with surgically removed third antennal segments): no avoidance of DEET
avoidance of DEET in first fifteen minutes of the trial (painless mutant flies; painless-Gal4 females and males): failed to avoid DEET
exposure time until consistent avoidance of DEET (dTRPA1 mutant flies; 0.2% concentration): less than 15 minutes
time to begin avoiding DEET (wild-type Canton S flies; Canton S flies without antennae): almost immediately
avoidance without the third antennal segment (wild-type Canton S flies): able to avoid
avoidance of DEET in first fifteen minutes after exposure (wild-type Canton S flies; wild type Canton-S flies): clearly avoided DEET
lowest concentration in agar consistently avoided (wild-type Canton S flies; wild-type Canton S flies, with and without the presence of sugar): 0.2%
avoidance (Or83b mutants): able to avoid DEET
